This assay has as its target T1, IGF-1R (Homo sapiens, UniProt P08069).
T1 construct: expressed in transfected cells
In words: Example B-2: IGF-1R Assay (PathHunter cell lines, EC80 agonist challenge, chemiluminescent detection). The note with it: PathHunter cells, compound 60 minutes at 37° C., EC80 agonist 3 hours; read-out: IC50, Biological Activity against IGF-1R (Table B2). Type of assay: cell-based. How it is done: PathHunter cell lines were expanded from freezer stocks according to standard procedures. Cells were seeded in a total volume of 20 μL into white walled, 384-well microplates and incubated for the appropriate time prior to testing.
Cells are pre-incubated with compound followed by EC80 agonist challenge as follows: • R. 1. Intermediate dilution of sample stocks was performed to generate 5× sample in assay buffer. • 2. 5 μL of 5× sample was added to cells and incubated at 37° C. for 60 minutes. Vehicle concentration was 1%. • 3. 5 IL of 6× EC80 agonist in assay buffer was added to the cells and incubated at room temperature for 3 hours.
Assay signal was generated through a single addition of 12.5 or 15 μL (50% v/v) of PathHunter Detection reagent cocktail for agonist and antagonist assays respectively, followed by a one hour incubation at room temperature. Microplates were read following signal generation with a PerkinElmer Envision™ instrument for chemilumine-scent signal detection.
Compound activity was analyzed using CBIS data analysis suite (ChemInnovation, CA). Percentage inhibition was calculated using the following formula: % Inhibition=100%×(1−(mean RLU of test sample−mean RLU of vehicle control)/(mean RLU of EC80 control−mean RLU of vehicle control)). The activity for representative examples of the invention is shown in the following table, wherein A: IC50≤500 nM; B: 500 nM<IC50≤2 μM; C: 2 μM<IC50≤10 μM; D: IC50>10 μM.

SMILES strings stand for the structures. Bounds are passed on as bounds.

T1 sequence (P08069 31-1367): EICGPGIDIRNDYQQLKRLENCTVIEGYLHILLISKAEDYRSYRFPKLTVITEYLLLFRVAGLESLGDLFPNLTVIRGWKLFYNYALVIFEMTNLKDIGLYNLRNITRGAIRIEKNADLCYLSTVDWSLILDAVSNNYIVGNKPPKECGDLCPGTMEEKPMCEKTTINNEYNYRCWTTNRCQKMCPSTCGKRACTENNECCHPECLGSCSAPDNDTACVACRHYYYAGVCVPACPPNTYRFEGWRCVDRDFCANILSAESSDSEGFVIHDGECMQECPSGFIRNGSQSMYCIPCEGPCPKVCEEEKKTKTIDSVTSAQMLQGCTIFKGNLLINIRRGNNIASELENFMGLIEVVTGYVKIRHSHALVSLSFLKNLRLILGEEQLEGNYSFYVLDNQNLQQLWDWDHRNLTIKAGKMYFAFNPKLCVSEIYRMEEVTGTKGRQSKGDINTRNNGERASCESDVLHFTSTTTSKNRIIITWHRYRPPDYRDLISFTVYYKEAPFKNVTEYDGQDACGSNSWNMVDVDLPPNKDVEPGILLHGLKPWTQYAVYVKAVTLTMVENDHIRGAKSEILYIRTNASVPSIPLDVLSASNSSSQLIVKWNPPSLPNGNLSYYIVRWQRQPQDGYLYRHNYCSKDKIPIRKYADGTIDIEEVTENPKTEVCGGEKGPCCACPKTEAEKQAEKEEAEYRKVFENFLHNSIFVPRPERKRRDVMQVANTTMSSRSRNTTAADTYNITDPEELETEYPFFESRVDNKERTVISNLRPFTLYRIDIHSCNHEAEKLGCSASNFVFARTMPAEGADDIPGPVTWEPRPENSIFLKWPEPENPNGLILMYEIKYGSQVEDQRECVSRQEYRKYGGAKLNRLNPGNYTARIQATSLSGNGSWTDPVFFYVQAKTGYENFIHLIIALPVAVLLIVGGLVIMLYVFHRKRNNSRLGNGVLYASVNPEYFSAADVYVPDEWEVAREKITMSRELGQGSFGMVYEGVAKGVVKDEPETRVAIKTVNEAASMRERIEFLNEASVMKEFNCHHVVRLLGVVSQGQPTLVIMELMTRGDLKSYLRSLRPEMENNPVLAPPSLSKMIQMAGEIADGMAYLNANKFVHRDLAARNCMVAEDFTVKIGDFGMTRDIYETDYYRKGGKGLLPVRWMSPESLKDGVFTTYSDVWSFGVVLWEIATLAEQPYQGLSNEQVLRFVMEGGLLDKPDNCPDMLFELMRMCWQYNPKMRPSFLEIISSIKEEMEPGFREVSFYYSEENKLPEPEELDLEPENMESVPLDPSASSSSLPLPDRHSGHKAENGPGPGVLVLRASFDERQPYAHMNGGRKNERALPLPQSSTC

As a reminder, the IC50 is the concentration at which inhibition is half-maximal. As to `CC1(C)C(=O)N(c2ccc(OC(F)(F)F)c(NC(=O)CN3CCOCC3)c2)C(=O)N1Cc1ccnc2c1CC(=O)N2` [Compound 75, N-(5-(4,4-dimethyl-2,5-dioxo-3-((2-oxo-2,3-dihydro-1H-pyrrolo[2,3-b]pyridin-4-yl)methyl)imidazolidin-1-yl)-2-(trifluoromethoxy)phenyl)-2-morpholinoacetamide], the IC50 is ≤ 500 nM.
Regarding `CC1(C)C(=O)N(c2ccc(C#N)c(C(F)(F)F)c2)C(=O)N1Cc1ccnc2c1CC(=O)N2` [Compound 76, 4-(4,4-dimethyl-2,5-dioxo-3-((2-oxo-2,3-dihydro-1H-pyrrolo[2,3-b]pyridin-4-yl)methyl)imidazolidin-1-yl)-2-(trifluoromethyl)benzonitrile], the 50% inhibitory concentration (IC50) lay in the range of 2000 to 10000 nM.
As for `CC(C)(C)C(=O)Oc1cc2c(CN3C(=O)N(c4ccc(C5(C(F)(F)F)CC5)cc4)C(=O)C3(C)C)ccnc2[nH]1` [Compound 77, 4-((5,5-dimethyl-2,4-dioxo-3-(4-(1-(trifluoromethyl)cyclopropyl)phenyl)imidazolidin-1-yl)methyl)-1H-pyrrolo [2,3-b]pyridin-2-yl pivalate], the IC50 is ≤ 500 nM.
As for `CCOC(=O)N1C(=O)Cc2c(CN3C(=O)N(c4ccc(C5(C(F)(F)F)CC5)cc4)C(=O)C3(C)C)ccnc21` [Compound 78, ethyl 4-((5,5-dimethyl-2,4-dioxo-3-(4-(1-(trifluoromethyl)cyclopropyl)phenyl)imidazolidin-1-yl)methyl)-2-oxo-2,3-dihydro-1H-pyrrolo[2,3-b]pyridine-1-carboxylate], the IC50 is ≤ 500 nM.
Take `CC(C)(C)Cn1ccc(N2C(=O)N(Cc3ccnc4c3CC(=O)N4)C(C)(C)C2=O)cc1=O` [Compound 79, 5,5-dimethyl-3-(1-neopentyl-2-oxo-1,2-dihydropyridin-4-yl)-1-((2-oxo-2,3-dihydro-1H-pyrrolo[2,3-b]pyridin-4-yl)methyl)imidazolidine-2,4-dione]: the IC50 was > 10000 nM.
Consider `CC(CS(C)(=O)=O)Nc1cc(CN2C(=O)N(c3ccc(C4(C(F)(F)F)CC4)cc3)C(=O)C2(C)C)ccn1` (stereo not drawn) [Compound 140, 5,5-dimethyl-1-((2-((1-(methylsulfonyl)propan-2-yl)amino)pyridin-4-yl)methyl)-3-(4-(1-(trifluoromethyl)cyclopropyl)phenyl) imidazolidine-2,4-dione], for which the concentration for half-maximal inhibition (IC50) was 500 to 2000 nM.
For `CC1(C)C(=O)N(c2ccc(C3(C(F)(F)F)CC3)cc2)C(=O)N1Cc1ccnc(NC2CS(=O)(=O)C2)c1` [Compound 141, 1-((2-((1,1-dioxidothietan-3-yl)amino)pyridin-4-yl)methyl)-5,5-dimethyl-3-(4-(1-(trifluoromethyl)cyclopropyl)phenyl) imidazolidine-2,4-dione] the value was 500 to 2000 nM.
Turning to `CC1(C)C(=O)N(c2ccc(C3(C(F)(F)F)CC3)cc2)C(=O)N1Cc1ccnc(N[C@H]2C[C@H]2F)c1` [Compound 142, 1-((2-(((1S,2R)-2-fluorocyclopropyl)amino)pyridin-4-yl)methyl)-5,5-dimethyl-3-(4-(1-(trifluoromethyl)cyclopropyl)phenyl)imidazolidine-2,4-dione], the half-inhibitory concentration (IC50) is ≤ 500 nM.
On to `CC(C)Nc1cc(CN2C(=O)N(c3ccc(C(C)(C)C#N)nc3)C(=O)C2(C)C)ccn1` [Compound 143, 2-(5-(3-((2-(isopropylamino)pyridin-4-yl)methyl)-4,4-dimethyl-2,5-dioxoimidazolidin-1-yl)pyridin-2-yl)-2-methylpropanenitrile], for which the IC50 lay within 500 to 2000 nM.
For `CC(C)Nc1cc(CN2C(=O)N(c3ccc(C4(C#N)CC4)cc3)C(=O)C2(C)C)ccn1` [Compound 144, 1-(4-(3-((2-(isopropylamino)pyridin-4-yl)methyl)-4,4-dimethyl-2,5-dioxoimidazolidin-1-yl)phenyl)cyclopropane-1-carbonitrile], the half-inhibitory concentration (IC50) lay in the range of 500 to 2000 nM.
For `CC(C)Nc1cc(CN2C(=O)N(c3ccc(C4(C#N)CC4(C)C)cc3)C(=O)C2(C)C)ccn1` (stereo not drawn) [Compound 145, 1-(4-(3-((2-(isopropylamino)pyridin-4-yl)methyl)-4,4-dimethyl-2,5-dioxoimidazolidin-1-yl)phenyl)-2,2-dimethylcyclopropane-1-carbonitrile], the IC50 is ≤ 500 nM.
As for `CC1(C)C(=O)N(c2ccc(C3(C(F)(F)F)CC3)cc2)C(=O)N1Cc1ccnc(NC2CCN(S(C)(=O)=O)C2)c1` (stereo not drawn) [Compound 146, 5,5-dimethyl-1-((2-((1-(methylsulfonyl)pyrrolidin-3-yl)amino)pyridin-4-yl)methyl)-3-(4-(1-(trifluoromethyl)cyclopropyl)phenyl) imidazolidine-2,4-dione], the IC50 lay in the range of 500 to 2000 nM.
Under `C[C@H](CC#N)Nc1cc(CN2C(=O)N(c3ccc(C4(C(F)(F)F)CC4)cc3)C(=O)C2(C)C)ccn1` [Compound 147, (R)-3-((4-((5,5-dimethyl-2,4-dioxo-3-(4-(1-(trifluoromethyl)cyclopropyl)phenyl)imidazolidin-1-yl)methyl)pyridin-2-yl)amino)butanenitrile] stands ≤ 500 nM.
As for `CC1(C)C(=O)N(c2ccc(C3(C(F)(F)F)CC3)cc2)C(=O)N1Cc1ccnc(N[C@H]2[C@@H]3COC[C@@H]32)c1` [Compound 148, 1-((2-(((1R,5S,6r)-3-oxabicyclo[3.1.0]hexan-6-yl)amino)pyridin-4-yl)methyl)-5,5-dimethyl-3-(4-(1-(trifluoromethyl)cyclopropyl)phenyl) imidazolidine-2,4-dione], the IC50 is ≤ 500 nM.
On to `CC(C)(C#N)c1ccc(N2C(=O)N(Cc3ccnc(NC4CC4)c3)C(C)(C)C2=O)cc1` [Compound 149, 2-(4-(3-((2-(cyclopropylamino)pyridin-4-yl)methyl)-4,4-dimethyl-2,5-dioxoimidazolidin-1-yl)phenyl)-2-methylpropanenitrile], for which the half-inhibitory concentration (IC50) is ≤ 500 nM.
Take `COC[C@@H](C)Nc1cc(CN2C(=O)N(c3ccc(C(C)(C)C#N)cc3)C(=O)C2(C)C)ccn1` [Compound 150, (R)-2-(4-(3-((2-((1-methoxypropan-2-yl)amino)pyridin-4-yl)methyl)-4,4-dimethyl-2,5-dioxoimidazolidin-1-yl)phenyl)-2-methylpropanenitrile]: the IC50 is ≤ 500 nM.
For `C[C@@H](CC#N)Nc1cc(CN2C(=O)N(c3ccc(C(C)(C)C#N)cc3)C(=O)C2(C)C)ccn1` [Compound 151, (S)-3-((4-((3-(4-(2-cyanopropan-2-yl)phenyl)-5,5-dimethyl-2,4-dioxoimidazolidin-1-yl)methyl)pyridin-2-yl)amino)butanenitrile] the value was 500 to 2000 nM.
On to `CC(C)(C#N)c1ccc(N2C(=O)N(Cc3ccnc(N[C@H]4CCOC4)c3)C(C)(C)C2=O)cc1` [Compound 152, (S)-2-(4-(4,4-dimethyl-2,5-dioxo-3-((2-((tetrahydrofuran-3-yl)amino)pyridin-4-yl)methyl)imidazolidin-1-yl)phenyl)-2-methylpropanenitrile], for which the IC50 is 500 to 2000 nM.
In the case of `CC(C)(C#N)c1ccc(N2C(=O)N(Cc3ccnc(NC4CCOCC4)c3)C(C)(C)C2=O)cc1` [Compound 153, 2-(4-(4,4-dimethyl-2,5-dioxo-3-((2-((tetrahydro-2H-pyran-4-yl)amino)pyridin-4-yl)methyl)imidazolidin-1-yl)phenyl)-2-methylpropanenitrile], the IC50 was ≤ 500 nM.
For `CC(C)(C#N)c1ccc(N2C(=O)N(Cc3ccnc(NCC(F)F)c3)C(C)(C)C2=O)cc1` [Compound 154, 2-(4-(3-((2-((2,2-difluoroethyl)amino)pyridin-4-yl)methyl)-4,4-dimethyl-2,5-dioxoimidazolidin-1-yl)phenyl)-2-methylpropanenitrile], the IC50 lay within 500 to 2000 nM.
In the case of `CC1(Nc2cc(CN3C(=O)N(c4ccc(C(C)(C)C#N)cc4)C(=O)C3(C)C)ccn2)CC1` [Compound 155, 2-(4-(4,4-dimethyl-3-((2-((1-methylcyclopropyl)amino)pyridin-4-yl)methyl)-2,5-dioxoimidazolidin-1-yl)phenyl)-2-methylpropanenitrile], the half-inhibitory concentration (IC50) is ≤ 500 nM.
With `COCCC(C)Nc1cc(CN2C(=O)N(c3ccc(C(C)(C)C#N)cc3)C(=O)C2(C)C)ccn1` (stereo not drawn) [Compound 156, 2-(4-(3-((2-((4-methoxybutan-2-yl)amino)pyridin-4-yl)methyl)-4,4-dimethyl-2,5-dioxoimidazolidin-1-yl)phenyl)-2-methylpropanenitrile], the concentration for half-maximal inhibition (IC50) was ≤ 500 nM.
As to `CCOC[C@H](C)Nc1cc(CN2C(=O)N(c3ccc(C4(C(F)(F)F)CC4)cc3)C(=O)C2(C)C)ccn1` [Compound 157, (S)-1-((2-((1-ethoxypropan-2-yl)amino)pyridin-4-yl)methyl)-5,5-dimethyl-3-(4-(1-(trifluoromethyl)cyclopropyl)phenyl) imidazolidine-2,4-dione], the IC50 is ≤ 500 nM.
For `CC(C)OC[C@H](C)Nc1cc(CN2C(=O)N(c3ccc(C4(C(F)(F)F)CC4)cc3)C(=O)C2(C)C)ccn1` [Compound 158, (S)-1-((2-((1-isopropoxypropan-2-yl)amino)pyridin-4-yl)methyl)-5,5-dimethyl-3-(4-(1-(trifluoromethyl)cyclopropyl)phenyl) imidazolidine-2,4-dione] the value was 500 to 2000 nM.
